Legend:
Bacteria = assay: Preservation of a cooling lubricant emulsion, repeated weekly contamination with bacteria mixture; assay type: cell-based; conditions: maximum of 10 weeks; for Number of weeks in which the growth of microorganisms lay beneath the limiting values (bacteria <10^6 CFU/g): 0.05% (=500 ppm) BIT in cooling lubricant emulsion; for Number of weeks in which the growth of microorganisms remained below the limiting values (bacteria <10^6 CFU/g): 0.18% (=1800 ppm) OPP in cooling lubricant emulsion
Experimental: (§1) For this purpose, preserved samples of the cooling lubricant emulsion were repeatedly exposed in a weekly cycle to microbiological contamination with the following microorganisms:
(§2) The bacteria mixture was added in each case separately from the yeasts/molds. The maximum experimental time was 10 weeks (=10 contaminations/inoculation cycles), provided that the weekly cell count determination (in each case 7 days after the contamination) was kept within the following limiting values:
(§3) bacteria <10^6 CFU/g yeasts/molds <10^3-4 CFU/g
(§4) The experiment was terminated when said values were exceeded twice in succession.

Molds = assay: Preservation of a cooling lubricant emulsion, repeated weekly contamination with molds; assay type: cell-based, Acremonium strictum, Fusarium solani, Geotrichum candidum; conditions: maximum of 10 weeks; for Number of weeks in which the growth of microorganisms lay beneath the limiting values (molds <10^3-4 CFU/g): 0.05% (=500 ppm) BIT in cooling lubricant emulsion; for Number of weeks in which the growth of microorganisms remained below the limiting values (molds <10^3-4 CFU/g): 0.18% (=1800 ppm) OPP in cooling lubricant emulsion
Experimental: as §1, §2, §3, §4

Yeasts = assay: Preservation of a cooling lubricant emulsion, repeated weekly contamination with yeasts; assay type: cell-based, Rhodotorula rubra; conditions: maximum of 10 weeks; for Number of weeks in which the growth of microorganisms lay beneath the limiting values (yeasts <10^3-4 CFU/g): 0.05% (=500 ppm) BIT in cooling lubricant emulsion; for Number of weeks in which the growth of microorganisms remained below the limiting values (yeasts <10^3-4 CFU/g): 0.18% (=1800 ppm) OPP in cooling lubricant emulsion
Experimental: as §1, §2, §3, §4

| SMILES | Number of weeks in which the growth of microorganisms lay beneath the limiting values (bacteria <10^6 CFU/g) (Bacteria) | Number of weeks in which the growth of microorganisms lay beneath the limiting values (bacteria <10^6 CFU/g) (Bacteria; listed as benzisothiazolinone) | Number of weeks in which the growth of microorganisms lay beneath the limiting values (molds <10^3-4 CFU/g) (Molds) | Number of weeks in which the growth of microorganisms lay beneath the limiting values (molds <10^3-4 CFU/g) (Molds; listed as benzisothiazolinone) | Number of weeks in which the growth of microorganisms lay beneath the limiting values (yeasts <10^3-4 CFU/g) (Yeasts) | Number of weeks in which the growth of microorganisms lay beneath the limiting values (yeasts <10^3-4 CFU/g) (Yeasts; listed as benzisothiazolinone) | Number of weeks in which the growth of microorganisms remained below the limiting values (bacteria <10^6 CFU/g) (Bacteria) | Number of weeks in which the growth of microorganisms remained below the limiting values (bacteria <10^6 CFU/g) (Bacteria; listed as o-phenylphenol) | Number of weeks in which the growth of microorganisms remained below the limiting values (molds <10^3-4 CFU/g) (Molds) | Number of weeks in which the growth of microorganisms remained below the limiting values (molds <10^3-4 CFU/g) (Molds; listed as o-phenylphenol) | Number of weeks in which the growth of microorganisms remained below the limiting values (yeasts <10^3-4 CFU/g) (Yeasts) | Number of weeks in which the growth of microorganisms remained below the limiting values (yeasts <10^3-4 CFU/g) (Yeasts; listed as o-phenylphenol) |
| --- | --- | --- | --- | --- | --- | --- | --- | --- | --- | --- | --- | --- |
| O=c1[nH]sc2ccccc12 [BIT, benzisothiazolinone] | 1 week weeks | 1 week (of a maximum of 10 weeks) | 1 week weeks | 1 week (of a maximum of 10 weeks) | 7 weeks | 7 weeks (of a maximum of 10 weeks) |  |  |  |  |  |  |
| Oc1ccccc1-c1ccccc1 [OPP, o-phenylphenol] |  |  |  |  |  |  | 2 weeks | 2 weeks (of a maximum of 10 weeks) | 10 weeks | 10 weeks (of a maximum of 10 weeks) | 10 weeks | 10 weeks (of a maximum of 10 weeks) |

From patent US20100264359A1, “BIOCIDAL MIXTURES” (LANXESS DEUTSCHLAND GMBH, priority 2007, published 2010)
